According to US11510886B2, “Metformin amino acid compounds and methods of using the same” (Laboratorios Silancs S.A. DE C.V., priority 2016, dated 2022):
Entries after “also recorded” stand apart in the source; their conditions may differ. Counter-ions that a name gives are not always drawn. Like-named read-outs stand apart in the source and are kept apart here.

Tests used:
[1] = test system: rat model of streptozotocin-induced diabetes; assay: Blood glucose levels in rat model of streptozotocin-induced diabetes, 14 days oral; conditions: mean ± SD; for Blood glucose levels before TI/RI administration, Day −3 (before STZ administration): rats, baseline before STZ and before first TI/RI administration
[2] = test system: RAW264.7 macrophages; assay: GPBP secretion by RAW264.7 macrophages stimulated with LPS and IFN-γ (ELISA); format: cell-based
Protocol: FIG. 91. […]. FIG. 94. […]. In A, an assay scheme is shown; […]. […] In B, the relative expression of IL-10 in RAW264.7 macrophages cultured with conditioned media, obtained as specified in A, is shown. The analysis was carried out by quantitative RT and PCR, using HPRT-1 as a normalizer. In this case, the reference point were cells treated with a conditioned medium in absence of N26 (RQ=1 value), and the increased IL-10 expression was verified; the analysis included non-stimulated cells cultured in a fresh, non-conditioned medium (cells).
[…]; then, they were stimulated with LPS (0.5 μg/mL) and IFN-γ (20 ng/mL) for 16 hours, after which the GPBP concentration in culture media was determined by ELISA.
FIG. 104. […]. RAW264.7 cells (control cells) were treated as indicated (10 mM) for 2 hours and subsequently stimulated with LPS (0.5 μg/mL) and IFN-γ (20 ng/mL) for 16 hours; […].
FIG. 105. […]. then, the GPBP concentration in culture media was determined by ELISA.

[3] = test system: blood glucose level; assay: Effect of metformin compounds on the glucokinetic profile after oral glucose overload; format: in vivo, Rat; conditions: rat, 750 mg/kg referred to metformin base, mean ± SD; for Blood glucose level, 0.25 h post-glucose overload / Blood glucose level, 1 h post-glucose overload / Blood glucose level, 4 h post-glucose overload / Blood glucose level, pre-glucose overload: *p<0.05 vs vehicle; for Blood glucose level, 3 h post-glucose overload: *p<0.05, **p<0.01 vs vehicle
[4] = biological target: T1, GPBP (Homo sapiens, UniProt Q9Y5P4); assay: In vitro (auto)phosphorylation of recombinant FLAG-GPBP; format: biochemical; parameters: made in house; host or cells: Pichia pastoris; conditions: for GPBP in vitro kinase activity (autophosphorylation): β-glycerophosphate phosphorylation solution pH 7.0, [γ-32P]ATP, autoradiography (FIG. 64)
T1 sequence (Q9Y5P4 1-624): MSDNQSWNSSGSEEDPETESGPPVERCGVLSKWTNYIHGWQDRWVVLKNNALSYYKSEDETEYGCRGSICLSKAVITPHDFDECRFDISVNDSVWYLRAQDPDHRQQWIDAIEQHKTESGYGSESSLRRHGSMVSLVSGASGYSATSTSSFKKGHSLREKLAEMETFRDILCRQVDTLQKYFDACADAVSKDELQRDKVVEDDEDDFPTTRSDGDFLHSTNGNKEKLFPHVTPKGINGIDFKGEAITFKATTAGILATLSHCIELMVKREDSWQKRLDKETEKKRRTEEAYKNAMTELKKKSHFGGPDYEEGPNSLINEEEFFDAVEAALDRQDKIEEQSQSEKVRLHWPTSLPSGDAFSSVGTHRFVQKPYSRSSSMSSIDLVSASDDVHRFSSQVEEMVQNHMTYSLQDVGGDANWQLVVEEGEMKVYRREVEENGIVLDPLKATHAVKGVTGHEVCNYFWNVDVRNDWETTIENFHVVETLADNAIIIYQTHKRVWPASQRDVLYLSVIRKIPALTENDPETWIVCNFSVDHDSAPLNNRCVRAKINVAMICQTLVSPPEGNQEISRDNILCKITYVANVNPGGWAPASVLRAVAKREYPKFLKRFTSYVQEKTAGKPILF
Protocol: FIG. 64. […]. Recombinant FLAG-GPBP, in similar quantities, expressed in yeast Pichia pastoris (Invitrogen) and purified with anti-FLAG resin (Sigma), as described above (Raya et al. J Biol Chem. 1999; […]. The reaction cocktails (25 μl) were incubated at 30° C. and stirred (350 rpm) for 15 minutes, then analyzed using PAGE standard procedures in the presence of SDS and β-mercaptoethanol, and electrotransferred to PVDF membrane (Immobilon P, Millipore). Membranes were then exposed to autoradiography (32P) and subsequently sent for incubation with anti-FLAG antibodies, peroxidase-labelled; ECL Prime (GE Healthcare) (WB anti-FLAG) was used for developing.
[…]. Then, electrophoresis in 10% polyacrylamide gel and electroblotting to PVDF membrane were applied. Autoradiography was applied to membranes by exposure to photographic films (Amersham Hyperfilm MP, GE Healthcare Lifesciences). After autoradiography, the membranes were blocked with 5% skimmed milk in TBST and incubated with anti-FLAG (Sigma) monoclonal antibodies and secondary antibodies against mouse IgG conjugated to peroxidase (Promega).

[5] = test system: GPBP, LKB1/STRADα/MO25, AMPK, AS160; assay: In vitro phosphorylation of GPBP with LKB1 complex, AMPK and AS160; conditions: LKB1 complex without GPBP
[6] = Metformin association with lysine in aqueous solution (1H NMR titration); format: physicochemical; conditions: 1×PBS, pH 7.5, WINEQNMR2
Protocol: Specifically, 500 μL of a 10 mM lysine solution in buffer […] were introduced in an NMR tube, and the pH was adjusted to 7.5; moreover, […] of deuterated methanol was added, and the NMR proton spectrum was recorded (^1H). […] Increasing amounts of the metformin dissolution were added to the amino acid dissolution, and the ^1H NMR spectrum was recorded after each addition until reaching 20 equivalents.
The alpha proton signal of lysine (triplet to 3.76 ppm, FIG. 100) first shifted to lower […] and then to higher values. […] The complexation constant was calculated to be 828±42 (FIG. 101).

[7] = test system: insulin receptor; assay: Insulin receptor β subunit in plasma membrane of C2C12 myotubes; format: cell-based, Mice; conditions: 10 mM, 3 hours (FIG. 76), listed as SLN10
Protocol: FIG. 76. Metformin lysinate promotes the accumulation of insulin receptor β subunit in plasma membrane. C2C12 cells were differentiated for 5 days in DMEM supplemented with 2% horse serum; then, cultures were treated for 3 hours with SLN1 or SLN10 10 mM, or with vehicle (control) at 37° C. Similar quantities of each extract were analyzed by Western blot with insulin receptor subunit (IRP) specific antibodies.

[8] = biological target: T1, GPBP; format: binding

Compound: CN(C)C(=N)N=C(N)N [Metformin hydrochloride, metformin hydrochloride, reference compound]
- Blood glucose levels before TI/RI administration, Day −3 (before STZ administration) [1]: 120.00 ± 8.72 mg/dL
- GPBP secretion ([2]; 10 mM, LPS 0.5 μg/mL and IFN-γ 20 ng/mL (FIG. 91)): did not induce significantly the secretion of GPBP
- Blood glucose level, 0.25 h post-glucose overload [3]: 93.75 ± 15.78 mg/dL
- Blood glucose level, 0.5 h post-glucose overload [3]: 89.50 ± 9.98 mg/dL
- Blood glucose level, 1 h post-glucose overload [3]: 88.25 ± 10.63 mg/dL
- Blood glucose level, 2 h post-glucose overload [3]: 74.00 ± 10.58 mg/dL
- Blood glucose level, 3 h post-glucose overload [3]: 85.75 ± 7.37 mg/dL
- Blood glucose level, 4 h post-glucose overload [3]: 83.75 ± 7.23 mg/dL
- Blood glucose level, 6 h post-glucose overload [3]: 89.00 ± 11.80 mg/dL
- Blood glucose level, pre-glucose overload [3]: 77.00 ± 8.08 mg/dL
- GPBP in vitro kinase activity (autophosphorylation) [4]: moderate activator

Compound: metformin lysinate
- LKB1 autophosphorylation and STRADα phosphorylation [5]: trigger a discrete LKB1 autophosphorylation
- complexation constant [6]: 828±42
- accumulation of insulin receptor in the plasma membrane [7]: promotes the accumulation of insulin receptor in the plasma membrane
- Blood glucose levels before TI/RI administration, Day −1 ([1]; STZ-diabetic rats, before first TI/RI administration, n.d. = all values beyond ULOD of glucometer (600 mg/dl), § n=1, ¢ n=2): 577.00^§ ± n.d.^§ mg/dL
- Blood glucose levels before TI/RI administration, Day −3 (before STZ administration) [1]: 114.00 ± 6.93 mg/dL
- GPBP secretion [2]: induces cGPBP secretion; also recorded: induced GPBP secretion strongly
- biological activity (GPBP secretion) with equimolar MgCl2 or CaCl2 [2]: reduce the biological activity
- cGPBP levels in conditioned medium [2]: approximately 200 ng/mL
- Blood glucose level, 0.25 h post-glucose overload [3]: 108.33 ± 14.57 mg/dL
- Blood glucose level, 0.5 h post-glucose overload [3]: 101.00 ± 15.13 mg/dL
- Blood glucose level, 1 h post-glucose overload [3]: 106.00 ± 15.72 mg/dL
- Blood glucose level, 2 h post-glucose overload [3]: 94.00 ± 19.47 mg/dL
- Blood glucose level, 3 h post-glucose overload [3]: 84.67 ± 7.09 mg/dL
- Blood glucose level, 4 h post-glucose overload [3]: 89.00 ± 5.29 mg/dL
- Blood glucose level, 6 h post-glucose overload [3]: 98.33 ± 9.07 mg/dL
- Blood glucose level, pre-glucose overload [3]: 93.33 ± 22.48 mg/dL
- GPBP inhibition depending on reaction medium ([4]; Na buffer: 25 mM Tris-HCl pH 7.4, 150 mM NaCl (FIG. 66)): inhibits GPBP in Na buffer
- active ingredient concentration corresponding to 1 mM ([4]; in vitro assays, pH 7.0, applicant's estimate): 8.6 µM
- GPBP in vitro kinase activity (autophosphorylation) ([4]; listed as SLN10): inhibits GPBP in vitro kinase activity; also recorded: kinase activity inhibitors
- GPBP fluorescence emission at 370 nm (F370) [8]: steady reduction (extinction)
- Ksv (Stern-Volmer constant) [8]: 108800 M⁻¹
- n (number of SLN10 molecules bound to GPBP) [8]: 0.7
